The target of experiment [1] is T1, hM2 receptor (Homo sapiens, UniProt P08172).
T1 construct: expressed in transfected cells; host or cells: CHO-K1 cells
T1 sequence (P08172 1-466): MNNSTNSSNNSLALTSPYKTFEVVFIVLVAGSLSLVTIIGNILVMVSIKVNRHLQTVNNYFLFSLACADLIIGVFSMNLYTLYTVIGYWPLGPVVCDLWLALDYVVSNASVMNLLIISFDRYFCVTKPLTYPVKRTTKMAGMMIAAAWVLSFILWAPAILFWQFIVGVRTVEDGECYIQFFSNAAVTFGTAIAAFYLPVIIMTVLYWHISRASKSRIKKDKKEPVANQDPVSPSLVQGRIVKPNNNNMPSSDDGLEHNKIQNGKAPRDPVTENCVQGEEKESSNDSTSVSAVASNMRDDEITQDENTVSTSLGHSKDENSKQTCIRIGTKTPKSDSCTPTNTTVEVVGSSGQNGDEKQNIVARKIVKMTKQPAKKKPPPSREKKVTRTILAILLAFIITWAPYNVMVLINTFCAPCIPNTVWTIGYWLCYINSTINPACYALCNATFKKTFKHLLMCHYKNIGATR
Kind of experiment: Blockade of agonist-mediated [35S]GTPγS binding (Assay Test Procedure D, B). Type of experiment: biochemical. To be noted: CHO-K1 cells expressing the hM2 receptor; read-out: Ki value for blockade of oxotremorine-stimulated [35S]GTPγS binding. As for the experimental part:
In a second functional assay, the functional potency of test compounds was determined by measuring the ability of the compounds to block oxotremorine-stimulated [^35S]GTPγS binding in CHO-K1 cells expressing the hM2 receptor.
At the time of use, frozen membranes were thawed and then diluted in assay buffer with a final target tissue concentration of 5-10 μg protein per well. The membranes were briefly homogenized using a Polytron PT-2100 tissue disrupter and then added to the assay plates.
The EC90 value (effective concentration for 90% maximal response) for stimulation of [^35S]GTPγS binding by the agonist oxotremorine was, determined in each experiment.
To determine the ability of a test compound to inhibit oxotremorine-stimulated [^35S]GTPγS binding, the following was added to each well of 96 well plates: […] of assay buffer with [^35S]GTPγS (0.4 nM), 25 μL of oxotremorine (EC90) and GDP (3 uM), 25 μL of diluted test compound and 25 μL CHO cell membranes expressing the hM2 receptor. […] Microscint-20 scintillation liquid (50 μL) was added to each well, and each plate was sealed and radioactivity counted on a Topcounter (PerkinElmer). Data were analyzed by nonlinear regression analysis with the GraphPad Prism Software package (GraphPad Software, Inc., San Diego, Calif.) using the non-linear regression, one-site competition equation. […]

In experiment [2] the target is T1, hM2 receptor. Kind of experiment: Blockade of agonist-mediated inhibition of cAMP accumulation (Assay Test Procedure D, A). Particulars: CHO-K1 cells expressing the hM2 receptor; read-out: Ki value for blockade of oxotremorine-inhibition of forskolin-mediated cAMP accumulation. It counts as cell-based. As for the experimental part: In this assay, the functional potency of a test compound was determined by measuring the ability of the test compound to block oxotremorine-inhibition of forskolin-mediated cAMP accumulation in CHO-K1 cells expressing the hM2 receptor. cAMP assays were performed in a radioimmunoassay format using the Flashplate Adenylyl Cyclase Activation Assay System with ^125I-cAMP (NEN SMP004B, PerkinElmer Life Sciences Inc., Boston, Mass.), according to the manufacturer's instructions. Cells were rinsed once with dPBS and lifted with Trypsin-EDTA solution (0.05% trypsin/0.53 mM EDTA) as described in the Cell Culture and Membrane Preparation section above. The detached cells were washed twice by centrifugation at 650×g for five minutes in 50 mL dPBS. The cell pellet was then re-suspended in 10 mL dPBS, and the cells were counted with a Coulter Z1 Dual Particle Counter (Beckman Coulter, Fullerton, Calif.). […]
Reactions were incubated for 10 minutes at 37° C. and stopped by addition of 100 μL ice-cold detection buffer. Plates were sealed, incubated overnight at room temperature and counted the next morning on a PerkinElmer TopCount liquid scintillation counter (PerkinElmer Inc., Wellesley, Mass.). The amount of cAMP produced (pmol/well) was calculated based on the counts observed for the samples and cAMP standards, as described in the manufacturer's user manual. […]
(Changes in cAMP serve as a functional read-out for many G protein-coupled receptors.)

Among the data in US7893256B2, “Azabicycloalkane compounds” (Theravance, Inc., priority 2003, dated 2011) are Ki values, retold here.

In general, Ki refers to the dissociation constant of the complex between target and ligand, obtained from inhibition or displacement. In the case of `C[N+]1(CCCCCCCCCNC[C@H](O)c2ccc(O)c3[nH]c(=O)ccc23)C2CC(OC(=O)C(O)(c3cccs3)c3cccs3)CC1C1OC12.C[N+]1(CCCCCCCCCNC[C@H](O)c2ccc(O)c3[nH]c(=O)ccc23)C2CC(OC(=O)C(O)(c3cccs3)c3cccs3)CC1C1OC12.O=C([O-])C(F)(F)F.O=C([O-])C(F)(F)F` (stereo partly drawn) [Example 1, 7-(2-Hydroxy-2,2-dithiophen-2-ylacetoxy)-9-{9-[(R)-2-hydroxy-2-(8-hydroxy-2-oxo-1,2-dihydroquinolin-5-yl)ethylamino]nonyl}-9-methyl-3-oxa-9-azonia-tricyclo[3.3.1.0^2,4]nonane Ditrifluoroacetate], the Ki at hM2 receptor [1] and on hM2 receptor [2] was less than 50 nM throughout.
